# Where two headings read alike, the source gives them in different places.
# Assays:
# [1] = test system: vascular smooth muscle; conditions: according to data in European Patent No. 41,757; cited from earlier work
# [2] = test system: systemic hemodynamics; experiment: Effects on systemic hemodynamics in dogs anaesthetized with pentobarbital (i.v. bolus); type: in vivo, dog; conditions: for Heart rate: average ± SD, basal: Compound II 167±15, Compound A 178±11; for Heart index: basal: Compound II 1.547±0.147, Compound A 1.820±0.311; for Total peripheral resistances: basal: Compound II 78.497±8.587 (** p<0.01), Compound A 63.985±5.037; for Arterial pressure, minimum: basal: Compound II 101±5 (** p<0.01), Compound A 97±11; for Arterial pressure, medium: basal: Compound II 117±7 (** p<0.01), Compound A 112±12; for Maximum ejection rate: basal: Compound II 126.79±14.41 (* p<0.05), Compound A 138.59±21.74; for Arterial pressure, maximum: basal: Compound II 149±11 (* p<0.05), Compound A 143±14
# Procedure: (§1) Catheters for detection of arterial pressure and flow electromagnetic transducers for measuring heart flow (heart index) and coronary flow were inserted in dogs anaesthetized with pentobarbital. The resistances were calculated from the pressure/flow ratio.
# [3] = test system: serotonin-enhanced aggregation of dog blood platelets; experiment: Enhancement in aggregation induced by serotonin, dog blood platelets; type: cell-based; conditions: Canis lupus familiaris, Platelet, dihydrochloride, read-out: Threshold Inhibiting Concentration (TlC)
# Procedure: (b) Enhancement in aggregation induced by serotonin.
# The addition of 5HT to dog blood platelets causes the aggregation of non-aggregating concentrations of adenosine diphosphate, collagen and adrenaline.
# The effects of compound II (dihydrochloride) expressed as single concentration, were evaluated by pre-incubating the blood platelets with different concentrations of the product and expressed as Threshold Inhibiting Concentration (TlC): […]
# [4] = test system: serotonin-induced shape change of rat blood platelets; experiment: Change of the shape of blood platelets induced by serotonin; type: cell-based; conditions: Platelet, pre-treated, dihydrochloride
# Procedure: (c) Change of the shape of blood platelets induced by serotonin. The addition of serontonin to rat blood platelets causes a change in the shape which is measured by an aggregometer as maximum decrease in light transmission.
# Compund II (dihydrochloride) was tested by pre-treating the blood platelets with different concentrations of product and the activity was expressed as 50% inhibiting concentration (IC50).
# [5] = test system: serotonin-induced spasm of mesenteric artery; experiment: Antagonism towards vascular spasms induced by serotonin, mesenteric artery strips; type: cell-based; conditions: Krebs solution 37 °C, fiduciary limits 0.15-0.31
# Procedure: (§2) (a) Antagonism towards vascular spasms induced by serotonin. Vascular strips of mesenteric artery and rabbit aorta were put into baths for isolated organ containing Krebs solutions at 37° C. and aerated with a mixture of oxygen and carbon dioxide 95:5.
# (§3) The addition of serotonin to the bath causes a spasm which is detected by a strength transducer.
# (§4) The antagonistic activity of compound II, evaluated as inhibiting concentration (IC50), gave the following results: […]
# [6] = test system: serotonin; experiment: Specific antagonism of serotonin effects on blood platelets and vessels (general statement)
# Description: Evaluation of specific antagonistic activity to serotonin (5TH) effects
# [7] = test system: smooth muscle cells isolated from rat aorta; experiment: Inhibition of arterial smooth muscle cell proliferation; type: cell-based
# Procedure: A culture of smooth muscle cells was isolated by rat aorta incubated in the presence of the tested Compounds II, A, B, C and D for 24, 48 and 72 hours in a minimal essential medium added with bovine fetal serum: at the above intervals the number of cells in the culture was counted by a hemocytometer and compared with the number of cells in a control culture.
# [8] = test system: serotonin-induced spasm of rabbit aorta; experiment: Antagonism towards vascular spasms induced by serotonin, aorta strips; type: cell-based; conditions: Oryctolagus cuniculus, Krebs solution 37 °C, fiduciary limits 0.05-0.56
# Procedure: as §2, §3, §4
# [9] = test system: arteriosclerotic plaques in aorta; experiment: Prevention of the formation of arteriosclerotic plaques in rabbits on hypercholesterolemic diet; type: in vivo, rabbit
# Procedure: Rabbits HY/CR were feeded with iperchloesterolemic diet (2% (cholesterol) for 60 days at the end of which, by planimetry after colouring aorta with Sindon Black, the extent of arteriosclerotic plaques was evaluated. […]
# [10] = test system: coronary hemodynamics; experiment: Effects on coronary hemodynamics in dogs anaesthetized with pentobarbital (i.v. bolus); type: in vivo, dog
# Procedure: as §1
smiles,measurement,setting,value
"COc1cc(CN(C)CCN(C)CCC(c2ccccc2)c2ccccc2)cc(OC)c1OC [Compound A, N,N'-dimethyl-N-(3,4,5-trimethoxybenyl)-N'-(3,3-diphenyl-propyl)-ethylenediamine, reference compound]",Anti-spasmodic activity (in words),[1],most active compound
same,Hemodynamic effects compared with Compound II (in words),"[2]; dog, 1 mg/kg (four times higher dose)",Comparable effects to compound II
same,Cardiac output (in words),"[2]; dog, Compound A at 1 mg/kg",decrease in cardiac output
same,Effects on peripheral vascular resistances and on arterial pressure (in words),"[2]; dog, i.v. bolus 0.25 mg/kg",borderline effects
same,Systolic index,"[2]; dog, i.v. bolus 0.25 mg/kg, Compound A, basal 10.09±1.29 (* p<0.05)",11.11±1.49 ml/beatsm^2
same,Heart rate,"[2]; dog, i.v. bolus 0.25 mg/kg",147±8 beats/min
same,Heart index,"[2]; dog, i.v. bolus 0.25 mg/kg",1.615±0.237 l/min/m^2
same,Total peripheral resistances,"[2]; dog, i.v. bolus 0.25 mg/kg",45.023±2.849 mmHg/l/min.
same,"Arterial pressure, minimum","[2]; dog, i.v. bolus 0.25 mg/kg",50±3 mmHg
same,"Arterial pressure, medium","[2]; dog, i.v. bolus 0.25 mg/kg",71±8 mmHg
same,Maximum ejection rate,"[2]; dog, i.v. bolus 0.25 mg/kg",135.58±17.55 ml/sec/m^2
same,"Arterial pressure, maximum","[2]; dog, i.v. bolus 0.25 mg/kg",98 mmHg
"COc1cc(CN(C)CCN(C)CCC(c2ccc(F)cc2)c2ccc(F)cc2)cc(OC)c1OC [Compound II, N,N'-dimethyl-N-(3,4,5-trimethoxybenzyl)-N'-[3,3-di-(4-fluorophenyl)-propyl]-ethylenediamine]",Cardiac output (in words),[2]; anesthetized dogs,increase in cardiac output
same,Heart rate (in words),[2]; anesthetized dogs,without a contemporaneous increase in heart rate
same,Systemic vascular resistances (in words),[2]; anesthetized dogs,decrease in systemic and coronary vascular resistances
same,Systolic index,"[2]; dog, i.v. bolus 0.25 mg/kg, Compound II, basal 9.51±1.24 (* p<0.05)",13.39±1.00 ml/beats/m^2
same,Heart rate,"[2]; dog, i.v. bolus 0.25 mg/kg",156±12 beats/min
same,Heart index,"[2]; dog, i.v. bolus 0.25 mg/kg",2.088±0.240 l/min/m^2
same,Total peripheral resistances,"[2]; dog, i.v. bolus 0.25 mg/kg",44.366±4.200 mmHg/l/min.
same,"Arterial pressure, minimum","[2]; dog, i.v. bolus 0.25 mg/kg",72±2 mmHg
same,"Arterial pressure, medium","[2]; dog, i.v. bolus 0.25 mg/kg",89±3 mmHg
same,Maximum ejection rate,"[2]; dog, i.v. bolus 0.25 mg/kg",174.77±10.27 ml/sec/m^2
same,"Arterial pressure, maximum","[2]; dog, i.v. bolus 0.25 mg/kg",130±6 mmHg
same,minimal effective concentration,[3]; adenosine diphosphate + serotonin,37 ± 20 µM
same,minimal effective concentration,[3]; adrenaline + serotonin,11 ± 5.4 µM
same,minimal effective concentration,[3]; collagen + serotonin,5.6 ± 4 µM
same,IC50,[4],8.35 ± 1.35 µM
same,IC50,[5],220 nM
same,Antagonism of serotonin effects on blood platelets and vessels (in words),[6],"able to antagonize, in a specific way, the effect of serotonin on blood platelets as well as on vessels"
same,Arterial smooth muscle cell proliferation (in words),[7],inhibit arterial smooth muscle cell proliferation
same,Inhibition of cell proliferation (in words),"[7]; 5 μM, 24, 48 and 72 hours",inhibited meaningfully cell proliferation
same,IC50,"[7]; rat aorta smooth muscle cells, 24, 48 and 72 hours (time of the IC50 not stated)",10 µM
same,IC50,[8],160 nM
same,Reduction of the area of plaques in aorta,"[9]; rabbit, 1 mg/kg s.c. twice a day, 60 days",40%
same,Reduction of the formation / area of plaques in aorta,"[9]; rabbit, 3 mg/kg s.c. twice a day, 60 days",60%
same,Prevention of the formation of arteriosclerotic plaques (in words),[9]; rabbits on hypercholesterolemic diet,able to prevent the formation of arteriosclerotic plaques
same,Coronary vascular resistances (in words),[10]; anesthetized dogs,decrease in systemic and coronary vascular resistances
same,"Arterial pressure, minimum","[10]; dog, coronary hemodynamics, i.v. bolus 0.25 mg/kg, basal 103±6",87±3 mmHg
same,"Arterial pressure, medium","[10]; dog, coronary hemodynamics, i.v. bolus 0.25 mg/kg, basal 116±4",102±5 mmHg
same,Heart rate,"[10]; dog, coronary hemodynamics, i.v. bolus 0.25 mg/kg, basal 140±14",143±15 beats/min
same,"Arterial pressure, maximum","[10]; dog, coronary hemodynamics, i.v. bolus 0.25 mg/kg, basal 145±3",142±5 mmHg
same,Average coronary resistances,"[10]; dog, i.v. bolus 0.25 mg/kg, basal 2.887±0.381, * p<0.05",1.301±0.141 mmHg/ml/min
same,Left circumflex coronary artery flow,"[10]; dog, i.v. bolus 0.25 mg/kg, basal 41.3±3.7, * p<0.05",101.6 ± 10.8 mL/min

# From US4988735A, “Ethylene diamine active cardiovascular therapy” (Simes, priority 1987, dated 1991)
